Experimental data as given in the NIST ThermoML archive (doi:10.1021/je060124c).

Conditions: Liquid, Capillary tube (Ostwald / Ubbelohde) method

O [water]
viscosity [mPa·s]
Conditions | 296.56 K | 337.85 K | 369.15 K | 398.75 K | 436.34 K | 482.43 K | 521.56 K | 580.74 K
10000 kPa | 0.9188 | 0.4362 | 0.296 | 0.2229 | 0.168 | 0.1308 | 0.1089 | 0.0838
30000 kPa | 0.9185 | 0.4437 | 0.3028 | 0.2295 | 0.1743 | 0.1341 | 0.1143 | 0.0953
